Measurements: the CheMixHub ionic liquid set
± gives the uncertainty stated by the source.

Assay: xn = mol fraction of the nth substance listed

CCO + CCCC[n+]1ccn(C)c1.[I-]
Details	electrical conductivity [S/m]
298.15 K, 100 kPa, x2 = 0	3.98e-05 ± 2.4e-06

N[C@@H](Cc1c[nH]cn1)C(=O)O + CCCC[n+]1ccn(C)c1.F[B-](F)(F)F + O
viscosity [mPa·s], 100 kPa
Details	293.15 K	298.15 K	303.15 K	308.15 K	313.15 K	318.15 K
x1 = 0.0002714, x2 = 0.0003602	1.038 ± 0.061	0.925 ± 0.061	0.843 ± 0.061	0.759 ± 0.061	0.701 ± 0.061	0.646 ± 0.061
x1 = 0.0002725, x2 = 0.0007201	1.07 ± 0.061	0.959 ± 0.061	0.876 ± 0.061	0.797 ± 0.061	0.744 ± 0.061	0.689 ± 0.061
x1 = 0.0002736, x2 = 0.00108	1.101 ± 0.061	0.991 ± 0.061	0.912 ± 0.061	0.838 ± 0.061	0.787 ± 0.061	0.733 ± 0.061
x1 = 0.0004522, x2 = 0.0003601	1.041 ± 0.061	0.927 ± 0.061	0.845 ± 0.061	0.761 ± 0.061	0.703 ± 0.061	0.648 ± 0.061
x1 = 0.000454, x2 = 0.00072	1.073 ± 0.061	0.962 ± 0.061	0.879 ± 0.061	0.8 ± 0.061	0.747 ± 0.061	0.692 ± 0.061
x1 = 0.0004559, x2 = 0.00108	1.104 ± 0.061	0.994 ± 0.061	0.915 ± 0.061	0.841 ± 0.061	0.79 ± 0.061	0.736 ± 0.061
x1 = 0.0006329, x2 = 0.00036	1.044 ± 0.061	0.93 ± 0.061	0.848 ± 0.061	0.764 ± 0.061	0.706 ± 0.061	0.651 ± 0.061
x1 = 0.0006355, x2 = 0.0007198	1.076 ± 0.061	0.965 ± 0.061	0.882 ± 0.061	0.803 ± 0.061	0.75 ± 0.06	0.695 ± 0.061
x1 = 0.0006382, x2 = 0.001079	1.107 ± 0.061	0.997 ± 0.061	0.918 ± 0.061	0.844 ± 0.061	0.793 ± 0.061	0.739 ± 0.061
x1 = 0.0008136, x2 = 0.00036	1.047 ± 0.061	0.933 ± 0.061	0.851 ± 0.061	0.767 ± 0.061	0.709 ± 0.061	0.654 ± 0.061
x1 = 0.000817, x2 = 0.0007197	1.079 ± 0.061	0.968 ± 0.061	0.885 ± 0.061	0.806 ± 0.061	0.753 ± 0.061	0.698 ± 0.061
x1 = 0.0008203, x2 = 0.001079	1.11 ± 0.061	1 ± 0.061	0.921 ± 0.061	0.847 ± 0.061	0.796 ± 0.061	0.742 ± 0.061
x1 = 0.0009942, x2 = 0.0003599	1.05 ± 0.061	0.936 ± 0.061	0.854 ± 0.061	0.77 ± 0.061	0.712 ± 0.061	0.657 ± 0.061
x1 = 0.0009983, x2 = 0.0007196	1.082 ± 0.061	0.971 ± 0.061	0.888 ± 0.061	0.809 ± 0.061	0.755 ± 0.061	0.7 ± 0.061
x1 = 0.001002, x2 = 0.001079	1.113 ± 0.061	1.003 ± 0.061	0.924 ± 0.061	0.849 ± 0.061	0.799 ± 0.061	0.745 ± 0.061
x1 = 0.001175, x2 = 0.0003598	1.053 ± 0.061	0.939 ± 0.061	0.856 ± 0.061	0.772 ± 0.061	0.714 ± 0.061	0.659 ± 0.061
x1 = 0.00118, x2 = 0.0007194	1.085 ± 0.061	0.974 ± 0.061	0.89 ± 0.061	0.811 ± 0.061	0.758 ± 0.061	0.703 ± 0.061
x1 = 0.001185, x2 = 0.001079	1.116 ± 0.061	1.006 ± 0.061	0.927 ± 0.061	0.852 ± 0.061	0.802 ± 0.061	0.748 ± 0.061
x1 = 0.001355, x2 = 0.0003598	1.056 ± 0.061	0.942 ± 0.061	0.859 ± 0.061	0.775 ± 0.061	0.716 ± 0.061	0.661 ± 0.061
x1 = 0.001361, x2 = 0.0007193	1.088 ± 0.061	0.976 ± 0.061	0.893 ± 0.061	0.814 ± 0.061	0.76 ± 0.06	0.705 ± 0.061
x1 = 0.001366, x2 = 0.001079	1.119 ± 0.061	1.008 ± 0.061	0.929 ± 0.061	0.855 ± 0.061	0.804 ± 0.061	0.75 ± 0.06
x1 = 0.001536, x2 = 0.0003597	1.059 ± 0.061	0.944 ± 0.061	0.862 ± 0.061	0.777 ± 0.061	0.719 ± 0.061	0.663 ± 0.061
x1 = 0.001542, x2 = 0.0007192	1.091 ± 0.061	0.979 ± 0.061	0.896 ± 0.061	0.816 ± 0.061	0.763 ± 0.061	0.707 ± 0.061
x1 = 0.001548, x2 = 0.001078	1.122 ± 0.061	1.011 ± 0.061	0.932 ± 0.061	0.857 ± 0.061	0.806 ± 0.061	0.752 ± 0.061
x1 = 0.001716, x2 = 0.0003596	1.062 ± 0.061	0.947 ± 0.061	0.864 ± 0.061	0.779 ± 0.061	0.721 ± 0.061	0.666 ± 0.061
x1 = 0.001723, x2 = 0.000719	1.094 ± 0.061	0.982 ± 0.061	0.898 ± 0.061	0.818 ± 0.061	0.765 ± 0.061	0.71 ± 0.061
x1 = 0.00173, x2 = 0.001078	1.125 ± 0.061	1.014 ± 0.061	0.934 ± 0.061	0.86 ± 0.061	0.808 ± 0.061	0.753 ± 0.061

Oc1cccc(O)c1O + CCCCCCCCCCCC[N+](C)(C)C.[Br-]
101.3 kPa, x2 = 0.333
Details	electrical conductivity [S/m]	viscosity [mPa·s]
293.15 K	0.00471 ± 0.00017	–
298.15 K	0.00821 ± 0.00025	–
333.15 K	0.14 ± 0.0031	400 ± 23

CCO + CCCCCCCC(=O)[O-].c1c[nH+]c[nH]1
101.3 kPa, x1 = 1
Details	viscosity [mPa·s]
293.15 K	1.21 ± 0.04
303.15 K	1 ± 0.032

CC[S+](CC)CCOCCOCCOCCOCC[S+](CC)CC.N#C[N-]C#N.N#C[N-]C#N + CC[n+]1ccn(C)c1.N#C[N-]C#N + O=S(=O)([N-]S(=O)(=O)C(F)(F)F)C(F)(F)F.[Li+]
100 kPa, x1 = 0.2317, x2 = 0.6756
Details	electrical conductivity [S/m]
298 K	0.811 ± 0.032
303 K	1.16 ± 0.046
313 K	1.35 ± 0.054
323 K	1.51 ± 0.061
333 K	1.93 ± 0.077
343 K	2.26 ± 0.091
